Source: patent publication US7807679B2, “Piperazine derivatives and their use in controlling pests” (Syngenta Crop Protection, Inc., priority 2004, dated 2010)

Legend:
[1] = system: Aedes aegypti (Yellow Fever Mosquito); assay: Aedes aegypti larvae test in microtiter plates; format: in vivo; details: 48 h, larvae (L2) with nutrition mixture, mortality and growth inhibition 2 days later
From the text: 10-15 Aedes larvae (L2) together with a nutrition mixture are placed in 96-well microtiter plates. Test solutions at an application rate of 2 ppm are pipetted into the wells. 2 days later, insects were checked for mortality and growth inhibition. The following compounds gave at least 80% control of Aedes aegypti • I-3, I-26, I-29, I-30, I-49, I-52, I-53, I-72, I-75, I-76, III-49, III-118, XIV-26, XV-26, XXIV-2, XXIV-46, XXIV-90, XXIV-93, XXIV-94 and XXV-68.

[2] = system: Heliothis virescens (Tobacco Budworm); assay: Heliothis virescens egg test on artificial diet; format: in vivo; details: 96 h, 200 ppm by pipetting, eggs (0-24 h old) on artificial diet, egg mortality, larval mortality, growth regulation after 4 days
Experimental: Eggs (0-24 h old) were placed in 24-well microtiter plate on artificial diet and treated with test solutions at an application rate of 200 ppm by pipetting. After an incubation period of 4 days, samples were checked for egg mortality, larval mortality, and growth regulation. The following compounds gave at least 80% control of Heliothis virescen: • I-3, I-6, I-7, I-26, I-29, I-30, I-47, I-49, I-52, I-53, I-72, I-75, I-417, I-532, I-578, I-785, I-854, I-877, III-49, V-49, XII-49, XIV-26, XIV-49, XV-26, XVI-26, XVII-26, XXIV-2, XXIV-46, XXIV-90, XXIV-93, XXIV-94, XXV-2, XXV-26, XXV-49 and XXV-68.

[3] = system: Myzus persicae (Green Peach Aphid); assay: Myzus persicae sunflower leaf disc spray test; format: in vivo; details: foliar, 144 h, 200 ppm sprayed on sunflower leaf discs, aphid population of mixed ages, mortality after 6 DAT
Experimental: Sunflower leaf discs were placed on agar in a 24-well microtiter plate and sprayed with test solutions at an application rate of 200 ppm. After drying, the leaf discs were infested with an aphid population of mixed ages. After an incubation period of 6 DAT, samples were checked for mortality. The following compounds gave at least 80% control of Myzus persicae: • I-3, I-26, I-29, […], I-30, I-49, I-52, I-53, I-72, I-75, III-49, V-49, XXIV-46, XXIV-90 and XXIV-94.

[4] = system: Spodoptera littoralis (Egyptian Cotton Leafworm); assay: Spodoptera littoralis cotton leaf disc spray test; format: in vivo; details: foliar, 72 h, 200 ppm sprayed on cotton leaf discs, 5 L1 larvae, mortality, repellent effect, feeding behaviour, growth regulation 3 days after treatment
From the text: Spodoptera littoralis (Egyptian Cotton Leafworm)
Cotton leaf discs were placed on agar in a 24-well microtiter plate and sprayed with test solutions at an application rate of 200 ppm. After drying, the leaf discs were infested with 5 L1 larvae. The samples were checked for mortality, repellent effect, feeding behaviour, and growth regulation 3 days after treatment (DAT). The following compounds gave at least 80% control of Spodoptera littoralis: • I-3, I-26, I-29, I-30, I-49, I-52, I-53, I-75, I-417, I-532, I-578, I-785, I-854, I-877, II-49, III-49, V-49, XII-49, XIV-26, XV-26, XXIV-2, XXIV-46, XXIV-90, XXIV-93, XXIV-94, XXV-26 and XXV-49.

O=C(Nc1ccccc1N1CCN(C/C=C/c2ccc(Cl)cc2)CC1)c1ccnc(Cl)c1 [Compound I-3, 2-chloro-N-(2-{4-[(E)-3-(4-chloro-phenyl)-allyl]-piperazin-1-yl}-phenyl)-isonicotinamide]
pest or weed control at 2 ppm [1]: ≥ 80% | pest or weed control at 200 ppm [2]: ≥ 80% | pest or weed control at 200 ppm [3]: ≥ 80% | pest or weed control at 200 ppm [4]: ≥ 80%

O=C(Nc1cc(F)ccc1N1CCN(C/C=C/c2ccc(Cl)cc2)CC1)c1ccnc(Cl)c1 [Compound I-72, 2-chloro-N-(5-fluoro-2-{4-[(E)-3-(4-chloro-phenyl)-allyl]-piperazin-1-yl}-phenyl)-isonicotinamide]
pest or weed control at 2 ppm [1]: ≥ 80% | pest or weed control at 200 ppm [2]: ≥ 80% | pest or weed control at 200 ppm [3]: ≥ 80%

CN(C(=O)c1ccnc(Cl)c1)c1ccccc1N1CCN(C/C=C/c2ccc(Cl)cc2)CC1 [Example 2, 2-chloro-N-(2-{4-[(E)-3-(4-chloro-phenyl)-allyl]-piperazin-1-yl}-phenyl)-N-methyl-isonicotinamide]
melting point: 117 to 120 °C

O=C(Nc1ccc(F)cc1N1CCN(C/C=C/c2ccc(OC(F)(F)F)cc2)CC1)c1ccnc(Cl)c1 [Compound I-30, 2-chloro-N-(4-fluoro-2-{4-[(E)-3-(4-trifluoromethoxy-phenyl)-allyl]-piperazin-1-yl}-phenyl)-isonicotinamide]
pest or weed control at 2 ppm [1]: ≥ 80% | pest or weed control at 200 ppm [2]: ≥ 80% | pest or weed control at 200 ppm [3]: ≥ 80% | pest or weed control at 200 ppm [4]: ≥ 80%

O=C(Nc1cc(Cl)cnc1N1CCN(C/C=C/c2ccc(OC(F)(F)F)cc2)CC1)c1ccnc(Cl)c1 [XXIV-94, 2-chloro-N-(5-chloro-2-{4-[(E)-3-(4-trifluoromethoxy-phenyl)-allyl]-piperazin-1-yl}-pyridin-3-yl)-isonicotinamide]
pest or weed control at 2 ppm [1]: ≥ 80% | pest or weed control at 200 ppm [2]: ≥ 80% | pest or weed control at 200 ppm [3]: ≥ 80% | pest or weed control at 200 ppm [4]: ≥ 80%

O=C(Nc1cc(F)ccc1N1CCN(C/C=C/c2ccc(OC(F)(F)F)cc2)CC1)c1ccnc(Cl)c1 [Compound I-76, 2-chloro-N-(5-fluoro-2-{4-[(E)-3-(4-trifluoromethoxy-phenyl)-allyl]-piperazin-1-yl)-phenyl)-isonicotinamide]
pest or weed control at 2 ppm [1]: ≥ 80%

O=C(Nc1ccc(Cl)cc1N1CCN(C/C=C/c2ccc(Cl)cc2)CC1)c1ccnc(Cl)c1 [Compound I-49, 2-chloro-N-(4-chloro-2-{4-[(E)-3-(4-chloro-phenyl)-allyl]-piperazin-1-yl}-phenyl)-isonicotinamide]
pest or weed control at 2 ppm [1]: ≥ 80% | pest or weed control at 200 ppm [2]: ≥ 80% | pest or weed control at 200 ppm [3]: ≥ 80% | pest or weed control at 200 ppm [4]: ≥ 80%

O=C(Nc1cc(Cl)cnc1N1CCN(C/C=C/c2ccc(C(F)(F)F)cc2)CC1)c1ccnc(Cl)c1 [XXIV-93, 2-chloro-N-(5-chloro-2-{4-[(E)-3-(4-trifluoromethyl-phenyl)-allyl]-piperazin-1-yl}-pyridin-3-yl)-isonicotinamide]
pest or weed control at 2 ppm [1]: ≥ 80% | pest or weed control at 200 ppm [2]: ≥ 80% | pest or weed control at 200 ppm [4]: ≥ 80%

O=C(Nc1cc(Cl)cnc1N1CCN(C/C=C/c2ccc(Cl)cc2)CC1)c1ccnc(Cl)c1 [XXIV-90, 2-chloro-N-(5-chloro-2-{4-[(E)-3-(4-chloro-phenyl)-allyl]-piperazin-1-yl}-pyridin-3-yl)-isonicotinamide]
pest or weed control at 2 ppm [1]: ≥ 80% | pest or weed control at 200 ppm [2]: ≥ 80% | pest or weed control at 200 ppm [3]: ≥ 80% | pest or weed control at 200 ppm [4]: ≥ 80%

O=C(Nc1cccnc1N1CCN(C/C=C/c2ccc(Cl)cc2)CC1)c1ccnc(Cl)c1 [XXIV-2, 2-chloro-N-(2-{4-[(E)-3-(4-chloro-phenyl)-allyl]-piperazin-1-yl}-pyridin-3-yl)-isonicotinamide]
pest or weed control at 2 ppm [1]: ≥ 80% | pest or weed control at 200 ppm [2]: ≥ 80% | pest or weed control at 200 ppm [4]: ≥ 80%

O=C(Nc1ccc(Cl)cc1N1CCN(Cc2ccc(Cl)cc2)CC1)c1ccnc(Cl)c1 [Compound I-47, 2-Chloro-N-{4-chloro-2-[4-(4-chloro-benzyl)-piperazin-1-yl}-phenyl)-isonicotinamide]
pest or weed control at 200 ppm [2]: ≥ 80%

O=C(Nc1ccc(F)cc1N1CCN(C/C=C/c2ccc(Cl)cc2)CC1)c1ccnc(Cl)c1 [Compound I-26, 2-chloro-N-(4-fluoro-2-{4-[(E)-3-(4-chloro-phenyl)-allyl]-piperazin-1-yl}-phenyl)-isonicotinamide]
pest or weed control at 2 ppm [1]: ≥ 80% | pest or weed control at 200 ppm [2]: ≥ 80% | pest or weed control at 200 ppm [3]: ≥ 80% | pest or weed control at 200 ppm [4]: ≥ 80%

O=C(Nc1ccc(Cl)cc1N1CCN(C/C=C/c2ccc(OC(F)(F)F)cc2)CC1)c1ccnc(Cl)c1 [Compound I-53, 2-chloro-N-(4-chloro-2-{4-[(E)-3-(4-trifluoromethoxy-phenyl)-allyl]-piperazin-1-yl}-phenyl)-isonicotinamide]
pest or weed control at 2 ppm [1]: ≥ 80% | pest or weed control at 200 ppm [2]: ≥ 80% | pest or weed control at 200 ppm [3]: ≥ 80% | pest or weed control at 200 ppm [4]: ≥ 80%

O=C(Nc1ccccc1N1CCN(C/C=C/c2ccc(OC(F)(F)F)cc2)CC1)c1ccnc(Cl)c1 [Compound I-7, 2-chloro-N-(2-{4-[(E)-3-(4-trifluoromethoxy-phenyl)-allyl]-piperazin-1-yl}-phenyl)-isonicotinamide]
pest or weed control at 200 ppm [2]: ≥ 80%

O=C(Nc1ccc(Cl)nc1N1CCN(C/C=C/c2ccc(Cl)cc2)CC1)c1ccnc(Cl)c1 [XXIV-46, 2-chloro-N-(6-chloro-2-{4-[(E)-3-(4-chloro-phenyl)-allyl]-piperazin-1-yl}-pyridin-3-yl)-isonicotinamide]
pest or weed control at 2 ppm [1]: ≥ 80% | pest or weed control at 200 ppm [2]: ≥ 80% | pest or weed control at 200 ppm [3]: ≥ 80% | pest or weed control at 200 ppm [4]: ≥ 80%

O=C(Nc1ccc(Cl)cc1N1CCN(C/C=C/c2ccc(C(F)(F)F)cc2)CC1)c1ccnc(Cl)c1 [Compound I-52, 2-chloro-N-(4-chloro-2-{4-[(E)-3-(4-trifluoromethyl-phenyl)-allyl]-piperazin-1-yl}-phenyl)-isonicotinamide]
pest or weed control at 2 ppm [1]: ≥ 80% | pest or weed control at 200 ppm [2]: ≥ 80% | pest or weed control at 200 ppm [3]: ≥ 80% | pest or weed control at 200 ppm [4]: ≥ 80%

O=C(Nc1cc(F)ccc1N1CCN(C/C=C/c2ccc(C(F)(F)F)cc2)CC1)c1ccnc(Cl)c1 [Compound I-75, 2-chloro-N-(5-fluoro-2-{4-[(E)-3-(4-trifluoromethyl-phenyl)-allyl]-piperazin-1-yl}-phenyl)-isonicotinamide]
pest or weed control at 2 ppm [1]: ≥ 80% | pest or weed control at 200 ppm [2]: ≥ 80% | pest or weed control at 200 ppm [3]: ≥ 80% | pest or weed control at 200 ppm [4]: ≥ 80%

O=C(Nc1ccc(F)cc1N1CCN(C/C=C/c2ccc(C(F)(F)F)cc2)CC1)c1ccnc(Cl)c1 [Compound I-29, 2-chloro-N-(4-fluoro-2-{4-[(E)-3-(4-trifluoromethyl-phenyl)-allyl]-piperazin-1-yl}-phenyl)-isonicotinamide]
pest or weed control at 2 ppm [1]: ≥ 80% | pest or weed control at 200 ppm [2]: ≥ 80% | pest or weed control at 200 ppm [3]: ≥ 80% | pest or weed control at 200 ppm [4]: ≥ 80%

O=C(Nc1ccccc1N1CCN(C/C=C/c2ccc(C(F)(F)F)cc2)CC1)c1ccnc(Cl)c1 [Compound I-6, 2-chloro-N-(2-{4-[(E)-3-(4-trifluoromethyl-phenyl)-allyl]-piperazin-1-yl}-phenyl)-isonicotinamide]
pest or weed control at 200 ppm [2]: ≥ 80%
